# Columns and labels:
# human TNFR-p75 = assay: Solid phase radioligand competition binding assay, E. coli lysates, TNFR-p75; details: 10-fold serial dilutions 10^-2 to 10^-7, < = inhibition but below 50% at 1:100, << = no measurable inhibition at 1:100
# Method: (§1) 10 ml suspensions of E. coli cells transformed and induced as described in Examples I and II were centrifuged at 4'000 rpm for 10 min and resuspended in 0.9 ml of lysis buffer (10 mM Tris-HCl pH 8.0, 5 mM EDTA, 2 mM PMSF, 10 mM benzamidine, 200 units/ml aprotinine and 0.1 mg/ml lysozyme). After 20 min incubation at room temperature 50 μl of 1M MgCl2, 20 μl of 5 mg/ml DNaseI, 50 μl of 5M NaCl and 50 μl of 10% NP-40 were added and the mixture was further incubated at room temperature for 15 min. 0.5 ml of the lysate clarified by centrifugation at 13'000 rpm for 5 min was subjected to ammonium sulfate precipitation (25%-70% cut). The 70% ammonium sulfat pellet was dissolved in 0.2 ml PBS and analyzed by sodium dodecyl sulfate polyacrylamide gel electrophoresis (SDS-PAGE) to confirm presence and approximate amount of the recombinant proteins.
# 96 well microtiter plates were coated with recombinant human […] TNFR-p75-hγ3 and TNFR-p55-hγ3 fusion proteins (extracellular portion of the receptor fused to the Fc part of human IgG3) at a concentration of 0.3 μg/ml and 0.1 μg/ml, respectively, in phosphate buffered saline (PBS, 100 μl/well, overnight at 4° C.) [Loetscher, H. et al. J. Biol. Chem. 266, 18324-18329 (1991); Lesslauer, W. et al. Eur. J. Immunol. 21, 2883-2886 (1991)]. After blocking with blocking buffer (50 mM Tris pH 7.4, 140 mM NaCl, 5 mM EDTA, 0.02% NAN3, 1% defatted milk powder) the microtiter plate was washed with PBS and incubated in blocking buffer containing 0.1% defatted milk powder with 10 ng/ml human wild-type ^125 I-TNFα and various dilutions of E. coli lysates ranging from 10^-2 to 10^-7 (10-fold serial dilutions). TNFα was labelled by the Iodogen method (Pierce Chemical Company) to a specific activity of about 10-30 μCi/μg. The volume was 100 μl/well and each lysate dilution was assayed in duplicate or triplicate. After three hours at room temperature the wells were thoroughly washed with PBS and counted in a γ-counter. The results are given in Table 2 for lysates comprising the muteins indicated therein.
# human TNFR-p55 = assay: Solid phase radioligand competition binding assay, E. coli lysates, TNFR-p55; details: for Dilution of E. coli Lysate for 50% Inhibition of 125I-TNFα Binding (ID50) TNFR-p55: 10-fold serial dilutions 10^-2 to 10^-7, < = inhibition but below 50% at 1:100, << = no measurable inhibition at 1:100; for ID50 TNFR-p55 / ID50 TNFR-p75: ratio = 1 no receptor selectivity, > 1 TNFR-p55 selectivity, < 1 TNFR-p75 selectivity
# Method: as §1, with “After” for “10 ml suspensions of E. coli cells transformed and induced as described in Examples I and II were centrifuged at 4'000 rpm for 10 min and resuspended in 0.9 ml of lysis buffer (10 mM Tris-HCl pH 8.0, 5 mM EDTA, 2 mM PMSF, 10 mM benzamidine, 200 units/ml aprotinine and 0.1 mg/ml lysozyme). After”
# TNFα was labelled by the Iodogen method (Pierce Chemical Company) to a specific activity of about 10-30 μCi/μg. The volume was 100 μl/well and each lysate dilution was assayed in duplicate or triplicate. After three hours at room temperature the wells were thoroughly washed with PBS and counted in a γ-counter. The results are given in Table 2 for lysates comprising the muteins indicated therein.
Substance,Dilution of E. coli Lysate for 50% Inhibition of 125I-TNFα Binding (ID50) TNFR-p75 (human TNFR-p75),Dilution of E. coli Lysate for 50% Inhibition of 125I-TNFα Binding (ID50) TNFR-p55 (human TNFR-p55),ID50 TNFR-p55 / ID50 TNFR-p75 (human TNFR-p55)
N34D: human TNFα mutein N34D,< 100 fold,250 fold,> 2.5
N34E: human TNFα mutein N34E,< 100 fold,330 fold,> 3.3
N34F: human TNFα mutein N34F,< 100 fold,100 fold,> 1
N34G: human TNFα mutein N34G,< 100 fold,330 fold,> 3.3
N34H: human TNFα mutein N34H,< 100 fold,670 fold,> 6.7
N34I: human TNFα mutein N34I,< 100 fold,200 fold,> 2
N34M: human TNFα mutein N34M,< 100 fold,< 100 fold,> 1
N34P: human TNFα mutein N34P,< 100 fold,< 100 fold,> 1
N34Q: human TNFα mutein N34Q,< 100 fold,< 100 fold,> 1
N34R: human TNFα mutein N34R,< 100 fold,< 100 fold,> 1
N34T: human TNFα mutein N34T,< 100 fold,"1,000 fold",> 10
N34V: human TNFα mutein N34V,< 100 fold,< 100 fold,> 1
"N34Y: human TNFα mutein N34Y, listed twice (codons TAT and TAC)",< 100 fold,< 100 fold,> 1
N92R: human TNFα mutein N92R,"1,250 fold","5,000 fold",4
Q21S: human TNFα mutein Q21S,"2,500 fold","2,500 fold",1
Q67K: human TNFα mutein Q67K,"50,000 fold","25,000 fold",0.5
Q67T: human TNFα mutein Q67T,"33,330 fold","25,000 fold",0.75
Q67Y: human TNFα mutein Q67Y,"33,330 fold","20,000 fold",0.6
